Results as given in patent publication US12275733B2, “Substituted pyrido[3,4-b]indoles for the treatment of cartilage disorders” (Sanofi, priority 2016, dated 2025).

What was measured:
ATDC5 cells = assay: Chondrogenesis activity assay in ATDC5 cells (collagen type II induction, immunofluorescence); type: cell-based, mouse; details: Mus musculus; for EC50: collagen type II induction in ATDC5 cells, concentration reaching 50% of maximum induction; for Emax: maximum percent induction of collagen type II relative to internal reference compound at 10 μM, ATDC5 cells
Procedure, shortened: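 Collagen type II was stained in fixed, permeabilized cells with an Alexa Fluor 488 secondary and measured by high-content fluorescence imaging. ATDC5 cells had 4 days at 37 °C in insulin-supplemented differentiation medium with compound, typically 40 nM–10 μM, 0.1% DMSO. DMSO wells and a 10 μM internal reference compound were used for normalization.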

[1] = system: primary human chondrocyte pellet cultures; assay: Chondrogenesis activity assay in primary human chondrocyte pellet cultures (proteoglycan (aggrecan) induction, Blyscan assay); type: cell-based; details: for EC50: 336 h, proteoglycan (aggrecan) induction, primary human chondrocyte pellets, 2 weeks culture; for Emax: Homo sapiens, Chondrocyte, maximum percent proteoglycan (aggrecan) induction relative to the internal reference compound at 10 μM
Method: B) Chondrogenesis Activity Assay in Primary Human Chondrocyte Pellet Cultures
In this assay human articular chondrocytes are harvested by enzymatic digestion from articular cartilage and passaged several times to dedifferentiate the chondrocytes and to propagate the cells. Cells are cultured as cell pellets in the presence of the compounds of the invention over 2 weeks, and the chondrogenic differentiation is quantified by the production of the chondrogenic marker aggrecan (proteoglycan).
In detail, primary chondrocytes were harvested by enzymatic digestion from cartilage of osteoarthritis patients undergoing knee joint replacement surgery, and cultured in vitro. Cells were passaged one or two times and aliquots were cryopreserved. To initiate chondrogenesis experiments, cell aliquots were thawn, cultured in Chondrocyte Growth Medium (CGM, Lonza, #CC-3216) and passaged twice to further propagate and dedifferentiate cells. Pellet cultures were initiated by seeding 2.5×10E5 cells per well into a 96-well deep well plate in 600 μl chondrocyte differentiation medium consisting of Dulbecco's Modified Eagle Medium (DMEM, Invitrogen, #41966), 1×ITS-solution (Insulin/Transferrin/sodium selenite; 100× solution: Invitrogen, #51500056), 5 μg/mL linoleic acid (Sigma, #L1012-1G), 1× nonessential amino acids (100× solution: Invitrogen, #11140); 10 nM Dexamethasone, 2 ng/ml TGF-β1 (transforming growth factor β1) and 10 μg/ml ascorbic acid. Cells were spun to pellets by centrifugation (10 min, 400×g). Test compounds dissolved in DMSO were added to yield increasing compound concentrations, typically from 40 nM to 10 μM, and a final DMSO concentration of 0.1%, and the cell pellets cultured at 37° C., and 5% CO2 for 2 weeks. On each 96-well plate, control wells containing no test compound but the same concentration of DMSO, i.e. untreated cells, were included and used as reference for the determination of the effect of the test compounds on the cells, and wells containing an internal reference compound at a concentration of 10 μM were included and used as positive control and for standardizing the results. Chondrocyte differentiation medium and the compounds were exchanged twice weekly until harvest of the pellets.
For harvest of the pellets, medium was removed and the pellet was homogenized by enzymatic digestion. 100 μl of protease solution containing 0.4 mg/ml papain, 50 mM sodium phosphate, 4 mM EDTA and 0.48 mg/ml L-cysteine was added to the pellet in each well of a 96-well plate, the plate was sealed with a plate sealer foil (SILVERseal, Greiner Bio-One) and incubated for 4 to 6 hours at 65° C. with agitation.
The concentration of proteoglycan (aggrecan) was determined by quantification of the sulfated glycosaminoglycan side chains of aggrecan using the Blyscan assay (Kit from Biocolor). Aliquots of the papain-digest were transferred to 400 μl of Blyscan dye solution and incubated at room temperature for 45 min with agitation (1200 rpm). The mixture was centrifuged at 3760×g for 45 min, the supernatant was discarded, and the stained pellet was redissolved in 400 μl of Blyscan dissociation reagent by rotation until the precipitate completely resolved. Optical density was measured at 656 nm using a Tecan Saphire2 instrument, and the amount of proteoglycan determined against a standard curve with chondroitin-4-sulfate.
Induction of proteoglycan (aggrecan) was calculated for each compound concentration relative to the control (untreated cells, i.e. no test compound added), and an EC50 value (effective concentration 50 (in μM (micromollliter)), i.e. the compound concentration at which the effect of the compound on proteoglycan (aggrecan) induction reaches 50% of the maximum induction) was calculated using a sigmoidal signal fit procedure. […]

Row | Structure (SMILES) | EC50 (ATDC5 cells) | Emax (ATDC5 cells) | EC50 [1] | Emax [1]
1 | FC(F)(F)Cn1c2cnccc2c2cc(Cl)cc(-c3cnn(Cc4cccnc4)c3)c21 [Example 2, 6-Chloro-8-(1-(pyridin-3-ylmethyl)-1H-pyrazol-4-yl)-9-(2,2,2-trifluoroethyl)-9H-pyrido[3,4-b]indole] | 710 nM | > 80% | 4400 nM | > 200%
2 | CCn1c2c(-c3cnn(Cc4cccnc4)c3)cc(Br)cc2c2ccnc(C)c21 [Example 5, 6-Bromo-9-ethyl-1-methyl-8-(1-pyridin-3-ylmethyl-1H-pyrazol-4-yl)-9H-pyrido[3,4-b]indole] | 490 nM | > 80% | 1300 nM | > 200%
3 | Cc1nccc2c1[nH]c1c(-c3ccc(OCC4(C)COC4)cc3)cc(Cl)c(C)c12 [Example 8, 6-Chloro-1,5-dimethyl-8-[4-(3-methyl-oxetan-3-ylmethoxy)-phenyl]-9H-pyrido[3,4-b]indole] | 120 nM | > 80% | 260 nM | 100 to 200%
4 | OCCn1cc(-c2cc(Cl)cc3c4ccncc4n(CC(F)(F)F)c23)cn1 [Example 10, 2-(4-[6-Chloro-9-(2,2,2-trifluoroethyl)-9H-pyrido[3,4-b]indol-8-yl]pyrazol-1-yl)ethanol] | 690 nM | > 80% | 2400 nM | 40 to 100%
5 | FC(F)(F)Cn1c2cnccc2c2cc(Cl)cc(-c3cnn(-c4ccccc4)c3)c21 [Example 11, 6-Chloro-8-(1-phenyl-1H-pyrazol-4-yl)-9-(2,2,2-trifluoroethyl)-9H-pyrido[3,4-b]indole] | 3900 nM | 50 to 80% | 7900 nM | 40 to 100%
6 | Cc1nccc2c1[nH]c1c(-c3ccc(OCCn4cccn4)cc3)cc(Cl)cc12 [Example 13, 6-Chloro-1-methyl-8-[4-(2-(1H-pyrazol-1-yl)ethoxy)-phenyl]-9H-pyrido[3,4-b]indole] | 120 nM | > 80% | 1100 nM | > 200%
7 | CCn1c2c(-c3ccnn3C)cc(Cl)cc2c2ccnc(C)c21 [Example 19, 6-Chloro-9-ethyl-1-methyl-8-(2-methyl-2H-pyrazol-3-yl)-9H-pyrido[3,4-b]indole] | > 10000 nM | 50 to 80% | 6900 nM | 40 to 100%
8 | CCn1c2c(-c3cnn(C)c3)cc(Br)cc2c2cc(C)nc(C)c21 [Example 21, 6-Bromo-9-ethyl-1,3-dimethyl-8-(1-methyl-1H-pyrazol-4-yl)-9H-pyrido[3,4-b]indole] | > 3300 nM | 20 to 50% | 4300 nM | > 200%
9 | COc1ccc(-c2cc(Cl)cc3c4ccnc(C)c4n(C)c23)cc1 [Example 22, 6-Chloro-8-(4-methoxy-phenyl)-1,9-dimethyl-9H-pyrido[3,4-b]indole] | 630 nM | > 80% | 4000 nM | > 200%
10 | COc1ccc(-c2cc(Cl)c(C)c3c2[nH]c2c(C)nccc23)cc1 [Example 27, 6-Chloro-8-(4-methoxy-phenyl)-1,5-dimethyl-9H-pyrido[3,4-b]indole] | 97 nM | > 80% | 3500 nM | > 200%
11 | Cc1nccc2c1[nH]c1c(-c3ccc(CNC4CCCC4)cc3)cc(Cl)cc12 [Example 29, [4-(6-Chloro-1-methyl-9H-pyrido[3,4-b]indol-8-yl)-benzyl]-cyclopentyl-amine] | > 1100 nM | < 20% | 1500 nM | 100 to 200%
12 | COc1ccc(-c2cc(C#N)cc3c2[nH]c2c(C)nccc23)cc1 [Example 33, 8-(4-Methoxy-phenyl)-1-methyl-9H-pyrido[3,4-b]indole-6-carbonitrile] | 120 nM | > 80% | 830 nM | 100 to 200%
